What all share (assay type): cell-based
Test [1] addresses T1, Peroxisome proliferator-activated receptor alpha (Homo sapiens) (UniProt Q07869).
T1 sequence (whole entry): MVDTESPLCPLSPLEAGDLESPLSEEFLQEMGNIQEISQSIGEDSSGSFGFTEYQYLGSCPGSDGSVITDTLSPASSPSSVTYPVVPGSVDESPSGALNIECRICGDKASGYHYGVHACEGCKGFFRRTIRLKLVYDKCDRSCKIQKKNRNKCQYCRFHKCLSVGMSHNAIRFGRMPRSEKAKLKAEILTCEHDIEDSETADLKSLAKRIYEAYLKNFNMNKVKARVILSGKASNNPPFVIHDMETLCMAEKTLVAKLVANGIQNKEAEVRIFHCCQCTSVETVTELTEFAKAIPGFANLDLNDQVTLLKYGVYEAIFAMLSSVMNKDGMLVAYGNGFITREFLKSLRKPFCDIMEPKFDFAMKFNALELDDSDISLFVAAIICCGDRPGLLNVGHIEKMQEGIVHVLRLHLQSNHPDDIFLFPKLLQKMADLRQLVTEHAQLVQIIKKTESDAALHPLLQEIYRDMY
The test can be described thus: Agonist activity at N-terminal Gal4 fused human PPARalpha LBD transfected in HEK293 cells at < 10 uM after 24 hrs by luciferase reporter gene assay. For orientation: A reporter such as luciferase makes a cellular process visible.

For test [2], the target named is T2, Peroxisome proliferator-activated receptor delta (Homo sapiens) (UniProt Q03181).
T2 sequence (whole entry): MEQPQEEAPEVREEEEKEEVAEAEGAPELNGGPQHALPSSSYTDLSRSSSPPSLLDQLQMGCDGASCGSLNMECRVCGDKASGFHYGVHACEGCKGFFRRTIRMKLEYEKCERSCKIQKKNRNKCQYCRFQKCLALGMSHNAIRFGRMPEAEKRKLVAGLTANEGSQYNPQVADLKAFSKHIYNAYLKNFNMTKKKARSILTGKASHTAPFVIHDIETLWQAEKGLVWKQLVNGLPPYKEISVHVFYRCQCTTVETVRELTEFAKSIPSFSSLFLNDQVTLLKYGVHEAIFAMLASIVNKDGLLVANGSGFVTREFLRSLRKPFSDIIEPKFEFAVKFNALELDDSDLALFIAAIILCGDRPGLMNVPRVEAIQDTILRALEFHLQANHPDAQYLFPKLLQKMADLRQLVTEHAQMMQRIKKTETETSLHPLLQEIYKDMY
The test can be described thus: Agonist activity at N-terminal Gal4 fused human PPARdelta LBD transfected in HEK293 cells at < 10 uM after 24 hrs by luciferase reporter gene assay.

The target in test [3] is T3, Peroxisome proliferator-activated receptor gamma (Homo sapiens) (UniProt P37231).
T3 sequence (whole entry): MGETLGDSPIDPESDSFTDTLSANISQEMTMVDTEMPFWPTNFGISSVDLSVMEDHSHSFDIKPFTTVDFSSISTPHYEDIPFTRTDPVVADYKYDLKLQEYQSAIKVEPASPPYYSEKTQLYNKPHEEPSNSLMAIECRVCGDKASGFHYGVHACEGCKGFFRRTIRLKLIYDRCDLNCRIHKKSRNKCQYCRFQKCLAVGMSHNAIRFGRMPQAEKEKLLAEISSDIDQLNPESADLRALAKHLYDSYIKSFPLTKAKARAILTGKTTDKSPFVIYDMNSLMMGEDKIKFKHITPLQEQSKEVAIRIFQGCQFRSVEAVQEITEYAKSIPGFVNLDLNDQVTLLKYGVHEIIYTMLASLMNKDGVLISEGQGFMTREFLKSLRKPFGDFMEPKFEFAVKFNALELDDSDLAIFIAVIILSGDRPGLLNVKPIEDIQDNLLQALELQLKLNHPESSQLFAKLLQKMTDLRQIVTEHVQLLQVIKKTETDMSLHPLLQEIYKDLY
The test can be described thus: Agonist activity at N-terminal Gal4 fused human PPARgamma LBD transfected in HEK293 cells at < 10 uM after 24 hrs by luciferase reporter gene assay.

For test [4], the target named is T4, Peroxisome proliferator-activated receptor alpha (Homo sapiens, UniProt Q07869).
T4 sequence (Q07869 whole entry): T1 sequence (whole entry)
Put plainly: Agonist activity at N-terminal Gal4 fused human PPARalpha LBD transfected in HEK293 cells after 24 hrs by luciferase reporter gene assay.

The target in test [5] is T5, Peroxisome proliferator-activated receptor delta (Homo sapiens, UniProt Q03181).
T5 sequence (Q03181 whole entry): T2 sequence (whole entry)
Put plainly: Agonist activity at N-terminal Gal4 fused human PPARdelta LBD transfected in HEK293 cells after 24 hrs by luciferase reporter gene assay.

Test [6] deals with T1, Peroxisome proliferator-activated receptor alpha (Homo sapiens). The test can be described thus: Agonist activity at N-terminal Gal4 fused human PPARalpha LBD transfected in HEK293 cells after 24 hrs by luciferase reporter gene assay relative to GW7647.
Test [7] deals with T2, Peroxisome proliferator-activated receptor delta (Homo sapiens). Put plainly: Agonist activity at N-terminal Gal4 fused human PPARdelta LBD transfected in HEK293 cells after 24 hrs by luciferase reporter gene assay relative to GW501516.

From ChEMBL document CHEMBL4428109, “Structure-activity relationship studies of non-carboxylic acid peroxisome proliferator-activated receptor α/δ (PPARα/δ) dual agonists” (Bioorg Med Chem, 2016) come the findings set out here.

The source made the active and inactive calls. The rule behind the calls is not given here.

`COC(=O)NC(C)c1nc(-c2ccc(Oc3ccc(O)cc3)cc2)no1` (centres undefined): the result in test [1], in test [2] and in test [3] was inactive.

Turning to `CC(=O)N(C)Cc1nc(-c2ccc(Oc3ccc(OCc4ccccc4)cc3)cc2)no1`, the result in test [1], in test [2] and in test [3] was inactive.

Consider `CC(NC(=O)OC(C)(C)C)c1nc(-c2ccc(Oc3ccc(OCc4ccccc4)cc3)cc2)no1` (centres undefined), for which the result in test [1] was inactive.

What is called EC50 is the midpoint of the concentration-response curve. A lower EC50 goes with greater potency. For the molecule `CCC(NC(C)=O)c1nc(-c2ccc(Oc3ccc(OCc4ccccc4)cc3)cc2)no1` (centres undefined), the EC50 in test [4] was found to be 0.13 µM; in test [5] it was 0.11 µM. In test [3], the outcome was inactive. In addition, the Emax in test [6] is 10 to 40%; in test [7] it was 5 to 15%.

In the case of `CC(N)c1nc(-c2ccc(Oc3ccc(OCc4ccccc4)cc3)cc2)no1` (centres undefined), the result in test [1] was inactive.

As to `CC(=O)NCc1nc(-c2ccc(Oc3ccc(OCc4ccccc4)cc3)cc2)no1`, the outcome in test [1], in test [2] and in test [3] was inactive.

Take `CC(NC(=O)C(F)(F)F)c1nc(-c2ccc(Oc3ccc(OCc4ccccc4)cc3)cc2)no1` (centres undefined): the values for the half-maximal effective concentration (EC50) in test [4] and in test [5] were 0.1 µM and 0.15 µM, respectively. For the same molecule, in test [3], the result was inactive. Further, the Emax in test [6] lay in the range of 10 to 40%; in test [7] it was 5 to 15%.

`CC(=O)NC(C)(C)c1nc(-c2ccc(Oc3ccc(OCc4ccccc4)cc3)cc2)no1`: the result in test [1], in test [2] and in test [3] was inactive.

Turning to `COC(=O)NC(C)c1nc(-c2ccc(Oc3ccc(OCc4ccccc4)cc3)cc2)no1` (centres undefined), the EC50 in test [4] worked out at 0.1 µM; in test [5] it was 0.29 µM. Also, the result in test [3] was inactive. Moreover, the Emax in test [6] lay within 10 to 40%; in test [7], 5 to 15%.

In the case of `CC(=O)N[C@H](C)c1nc(-c2ccc(Oc3ccc(OCc4ccccc4)cc3)cc2)no1`, the outcome in test [1] and in test [2] was inactive. In test [6], this molecule registered an Emax of 10 to 40%.

In the case of `CC(=O)N[C@@H](C)c1nc(-c2ccc(Oc3ccc(OCc4ccccc4)cc3)cc2)no1`, the figures for the half-maximal effective concentration (EC50) in test [4] and in test [5] were 0.017 µM and 0.023 µM, respectively. The Emax was in the range of 10 to 40% in test [6] and 5 to 15% in test [7].

`CC(NC(=O)C(F)(F)F)c1nc(-c2ccc(Oc3ccc(O)cc3)cc2)no1` (centres undefined): the result in test [1], in test [2] and in test [3] was inactive.
